# Source: ChEMBL document CHEMBL1268971, “4,5-Dihydro-1H-pyrazolo[4,3-h]quinazolines as potent and selective Polo-like kinase 1 (PLK1) inhibitors” (Bioorg Med Chem Lett, 2010)
# Columns and labels:
# [1] = Solubility of the compound at 105 Tween 80; type: physicochemical
# [2] = biological target: Cyclin-dependent kinase 2/cyclin A (Homo sapiens, UniProt P24941); test: Inhibition of CDK2/Cyclin A; type: protein-complex assay
# [3] = biological target: T1, Receptor-type tyrosine-protein kinase FLT3 (Homo sapiens, UniProt P36888); test: Inhibition of FLT3
# T1 sequence (P36888 whole entry): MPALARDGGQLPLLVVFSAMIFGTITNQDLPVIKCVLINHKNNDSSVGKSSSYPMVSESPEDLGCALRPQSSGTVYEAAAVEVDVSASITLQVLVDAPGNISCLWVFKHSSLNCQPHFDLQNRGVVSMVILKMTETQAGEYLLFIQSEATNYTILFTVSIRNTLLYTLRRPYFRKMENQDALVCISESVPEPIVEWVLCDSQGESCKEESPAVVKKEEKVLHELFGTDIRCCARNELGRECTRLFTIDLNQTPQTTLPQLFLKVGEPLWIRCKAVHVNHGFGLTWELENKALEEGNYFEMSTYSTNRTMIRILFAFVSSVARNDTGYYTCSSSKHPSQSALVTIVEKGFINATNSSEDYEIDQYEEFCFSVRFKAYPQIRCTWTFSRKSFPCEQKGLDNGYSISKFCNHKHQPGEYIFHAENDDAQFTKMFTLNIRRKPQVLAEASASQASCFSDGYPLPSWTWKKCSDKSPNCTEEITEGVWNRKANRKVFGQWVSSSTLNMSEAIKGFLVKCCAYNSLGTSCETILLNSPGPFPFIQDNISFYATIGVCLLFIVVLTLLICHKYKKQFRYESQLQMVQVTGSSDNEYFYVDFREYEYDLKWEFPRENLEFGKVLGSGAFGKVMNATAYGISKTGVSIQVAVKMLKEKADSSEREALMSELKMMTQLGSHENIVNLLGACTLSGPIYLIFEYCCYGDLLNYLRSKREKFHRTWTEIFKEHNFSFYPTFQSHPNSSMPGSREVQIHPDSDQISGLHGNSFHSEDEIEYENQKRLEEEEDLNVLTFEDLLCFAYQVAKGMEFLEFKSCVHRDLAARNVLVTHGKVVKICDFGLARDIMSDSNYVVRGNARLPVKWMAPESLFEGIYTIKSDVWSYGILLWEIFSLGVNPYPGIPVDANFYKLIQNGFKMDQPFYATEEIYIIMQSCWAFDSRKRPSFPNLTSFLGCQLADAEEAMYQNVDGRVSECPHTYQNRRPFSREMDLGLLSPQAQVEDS
# A2780 = test: cells; conditions: Homo sapiens, A2780, 72 h
# [4] = Permeability of the compound by PAMPA; type: ADME
# [5] = biological target: ALK tyrosine kinase receptor (Homo sapiens, UniProt Q9UM73); test: Inhibition of ALK
# [6] = Solubility of the compound at pH 7; type: physicochemical; conditions: buffer
# [7] = biological target: Serine/threonine-protein kinase PLK2 (Homo sapiens, UniProt Q9NYY3); test: Inhibition of PLK2
# [8] = Inhibition of casein kinase 2
# [9] = biological target: Serine/threonine-protein kinase Nek6 (Homo sapiens, UniProt Q9HC98); test: Inhibition of NEK6
# [10] = Intrinsic clearance in human liver microsomes; type: ADME, Microsome
# [11] = biological target: Serine/threonine-protein kinase PLK3 (Homo sapiens, UniProt Q9H4B4); test: Inhibition of PLK3
# [12] = Inhibition of PDGFR
# [13] = biological target: Serine/threonine-protein kinase PLK1 (Homo sapiens, UniProt P53350)
# [14] = Clearance in CD1 mouse at 10 mg/kg, iv administered as single dose by LC/MS/MS analysis; type: ADME, organism-based; set-up: dose 10 mg/kg, route intravenous; conditions: in vivo
# [15] = Volume of distribution at steady state in CD1 mouse at 10 mg/kg, iv administered as single dose by LC/MS/MS analysis; type: ADME, organism-based; set-up: dose 10 mg/kg, route intravenous; conditions: in vivo, read-out: Vdss
# [16] = Oral bioavailability in CD1 mouse at 10 mg/kg administered as single dose by LC/MS/MS analysis; type: ADME, organism-based; conditions: in vivo
# [17] = Terminal half life in CD1 mouse at 10 mg/kg, iv administered as single dose by LC/MS/MS analysis; type: ADME, organism-based; set-up: dose 10 mg/kg, route intravenous; conditions: in vivo, read-out: beta t1/2 (converted)
# [18] = Cmax in CD1 mouse at 10 mg/kg, po administered as single dose by LC/MS/MS analysis; type: ADME, organism-based; set-up: dose 10 mg/kg, route oral; conditions: in vivo
# [19] = AUC (0 to infinity) in CD1 mouse at 10 mg/kg, iv administered as single dose by LC/MS/MS analysis; type: ADME, organism-based; set-up: time infinity, dose 10 mg/kg, route intravenous; conditions: plasma
# [20] = AUC (0 to infinity) in CD1 mouse at 10 mg/kg, po administered as single dose by LC/MS/MS analysis; type: ADME, organism-based; set-up: time infinity, dose 10 mg/kg, route oral; conditions: plasma
# [21] = Terminal half life in CD1 mouse at 10 mg/kg, po administered as single dose by LC/MS/MS analysis; type: ADME, organism-based; set-up: dose 10 mg/kg, route oral; conditions: in vivo, read-out: beta t1/2 (converted)
# Chain of Serine/threonine-protein kinase PLK1 (P53350 whole entry): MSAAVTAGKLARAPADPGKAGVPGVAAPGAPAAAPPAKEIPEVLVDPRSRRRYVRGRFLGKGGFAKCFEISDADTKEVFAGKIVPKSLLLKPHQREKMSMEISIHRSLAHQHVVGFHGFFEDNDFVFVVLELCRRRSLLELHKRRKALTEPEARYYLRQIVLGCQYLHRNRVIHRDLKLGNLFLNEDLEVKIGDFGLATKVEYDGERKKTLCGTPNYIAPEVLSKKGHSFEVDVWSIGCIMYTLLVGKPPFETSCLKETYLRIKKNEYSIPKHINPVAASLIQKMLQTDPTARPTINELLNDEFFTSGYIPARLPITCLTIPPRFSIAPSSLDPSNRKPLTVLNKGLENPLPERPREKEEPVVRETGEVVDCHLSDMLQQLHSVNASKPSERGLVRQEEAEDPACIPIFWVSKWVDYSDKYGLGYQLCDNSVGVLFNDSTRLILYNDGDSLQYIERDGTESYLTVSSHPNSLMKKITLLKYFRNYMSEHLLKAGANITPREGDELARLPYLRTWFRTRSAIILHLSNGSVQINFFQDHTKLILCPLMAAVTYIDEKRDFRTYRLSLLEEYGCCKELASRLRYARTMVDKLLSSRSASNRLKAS
# Chain of Serine/threonine-protein kinase Nek6 (Q9HC98 whole entry): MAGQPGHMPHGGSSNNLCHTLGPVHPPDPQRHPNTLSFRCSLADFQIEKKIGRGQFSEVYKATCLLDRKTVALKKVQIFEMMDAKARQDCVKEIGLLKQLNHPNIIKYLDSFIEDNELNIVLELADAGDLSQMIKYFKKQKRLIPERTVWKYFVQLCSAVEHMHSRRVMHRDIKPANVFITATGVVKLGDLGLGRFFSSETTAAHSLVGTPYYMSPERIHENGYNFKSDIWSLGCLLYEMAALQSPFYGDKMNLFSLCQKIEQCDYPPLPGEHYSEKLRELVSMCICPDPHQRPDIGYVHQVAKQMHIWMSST
# Chain of Serine/threonine-protein kinase PLK3 (Q9H4B4 whole entry): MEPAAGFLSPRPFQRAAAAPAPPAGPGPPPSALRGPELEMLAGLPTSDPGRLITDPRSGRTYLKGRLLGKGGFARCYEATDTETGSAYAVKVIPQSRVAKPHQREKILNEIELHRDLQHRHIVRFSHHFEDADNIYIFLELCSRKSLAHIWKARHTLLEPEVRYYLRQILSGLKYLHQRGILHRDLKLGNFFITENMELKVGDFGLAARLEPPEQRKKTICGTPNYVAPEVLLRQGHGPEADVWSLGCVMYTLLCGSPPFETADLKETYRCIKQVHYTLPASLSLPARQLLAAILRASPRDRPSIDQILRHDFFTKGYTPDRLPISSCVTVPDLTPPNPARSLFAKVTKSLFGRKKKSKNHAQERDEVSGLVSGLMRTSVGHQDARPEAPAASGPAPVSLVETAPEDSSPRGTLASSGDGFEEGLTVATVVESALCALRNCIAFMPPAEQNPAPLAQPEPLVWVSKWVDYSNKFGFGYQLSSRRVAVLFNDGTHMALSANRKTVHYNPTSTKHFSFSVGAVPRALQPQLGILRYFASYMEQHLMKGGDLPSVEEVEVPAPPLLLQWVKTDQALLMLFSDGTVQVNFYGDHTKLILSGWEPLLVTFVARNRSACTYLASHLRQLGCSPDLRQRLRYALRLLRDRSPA
# Chain of ALK tyrosine kinase receptor (Q9UM73 whole entry): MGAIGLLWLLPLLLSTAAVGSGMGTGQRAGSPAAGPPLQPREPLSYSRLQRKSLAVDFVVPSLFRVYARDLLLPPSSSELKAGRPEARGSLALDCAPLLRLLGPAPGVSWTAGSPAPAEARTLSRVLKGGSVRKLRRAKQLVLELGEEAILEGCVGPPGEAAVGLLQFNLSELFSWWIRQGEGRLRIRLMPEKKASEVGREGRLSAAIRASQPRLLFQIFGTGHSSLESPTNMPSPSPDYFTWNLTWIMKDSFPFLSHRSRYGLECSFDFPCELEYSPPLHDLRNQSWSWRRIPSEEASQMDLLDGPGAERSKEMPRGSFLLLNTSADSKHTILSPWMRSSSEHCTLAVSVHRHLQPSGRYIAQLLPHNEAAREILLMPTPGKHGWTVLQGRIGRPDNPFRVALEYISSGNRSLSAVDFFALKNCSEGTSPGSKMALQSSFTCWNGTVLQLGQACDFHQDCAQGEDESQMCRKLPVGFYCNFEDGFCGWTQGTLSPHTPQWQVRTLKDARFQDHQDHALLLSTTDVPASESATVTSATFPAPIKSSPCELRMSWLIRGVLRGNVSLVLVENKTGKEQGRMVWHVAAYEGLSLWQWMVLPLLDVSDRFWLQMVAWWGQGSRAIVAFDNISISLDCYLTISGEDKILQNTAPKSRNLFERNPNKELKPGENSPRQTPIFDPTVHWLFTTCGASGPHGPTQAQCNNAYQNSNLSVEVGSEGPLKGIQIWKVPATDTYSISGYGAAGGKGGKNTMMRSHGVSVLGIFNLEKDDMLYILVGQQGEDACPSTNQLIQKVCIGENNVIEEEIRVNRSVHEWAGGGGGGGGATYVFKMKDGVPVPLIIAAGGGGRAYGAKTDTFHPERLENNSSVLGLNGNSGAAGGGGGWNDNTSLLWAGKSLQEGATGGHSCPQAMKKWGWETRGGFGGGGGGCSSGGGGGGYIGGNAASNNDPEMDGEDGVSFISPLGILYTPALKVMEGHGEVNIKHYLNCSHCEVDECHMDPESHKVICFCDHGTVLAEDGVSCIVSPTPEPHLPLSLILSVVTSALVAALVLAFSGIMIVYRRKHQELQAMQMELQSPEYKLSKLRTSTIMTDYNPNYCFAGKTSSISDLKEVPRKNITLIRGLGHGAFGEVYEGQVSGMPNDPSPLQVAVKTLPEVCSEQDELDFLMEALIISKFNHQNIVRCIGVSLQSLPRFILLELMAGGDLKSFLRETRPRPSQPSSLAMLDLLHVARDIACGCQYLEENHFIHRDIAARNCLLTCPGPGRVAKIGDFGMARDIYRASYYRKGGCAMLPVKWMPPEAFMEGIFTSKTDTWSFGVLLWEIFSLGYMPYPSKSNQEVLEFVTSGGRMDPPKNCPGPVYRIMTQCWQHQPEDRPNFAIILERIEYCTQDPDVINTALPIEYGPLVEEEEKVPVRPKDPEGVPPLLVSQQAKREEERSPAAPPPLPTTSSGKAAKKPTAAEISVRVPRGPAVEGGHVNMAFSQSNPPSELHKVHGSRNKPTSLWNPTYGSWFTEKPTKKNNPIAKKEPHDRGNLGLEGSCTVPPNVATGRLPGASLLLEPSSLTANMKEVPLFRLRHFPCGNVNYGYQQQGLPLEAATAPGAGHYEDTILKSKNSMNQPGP
# Chain of Serine/threonine-protein kinase PLK2 (Q9NYY3 whole entry): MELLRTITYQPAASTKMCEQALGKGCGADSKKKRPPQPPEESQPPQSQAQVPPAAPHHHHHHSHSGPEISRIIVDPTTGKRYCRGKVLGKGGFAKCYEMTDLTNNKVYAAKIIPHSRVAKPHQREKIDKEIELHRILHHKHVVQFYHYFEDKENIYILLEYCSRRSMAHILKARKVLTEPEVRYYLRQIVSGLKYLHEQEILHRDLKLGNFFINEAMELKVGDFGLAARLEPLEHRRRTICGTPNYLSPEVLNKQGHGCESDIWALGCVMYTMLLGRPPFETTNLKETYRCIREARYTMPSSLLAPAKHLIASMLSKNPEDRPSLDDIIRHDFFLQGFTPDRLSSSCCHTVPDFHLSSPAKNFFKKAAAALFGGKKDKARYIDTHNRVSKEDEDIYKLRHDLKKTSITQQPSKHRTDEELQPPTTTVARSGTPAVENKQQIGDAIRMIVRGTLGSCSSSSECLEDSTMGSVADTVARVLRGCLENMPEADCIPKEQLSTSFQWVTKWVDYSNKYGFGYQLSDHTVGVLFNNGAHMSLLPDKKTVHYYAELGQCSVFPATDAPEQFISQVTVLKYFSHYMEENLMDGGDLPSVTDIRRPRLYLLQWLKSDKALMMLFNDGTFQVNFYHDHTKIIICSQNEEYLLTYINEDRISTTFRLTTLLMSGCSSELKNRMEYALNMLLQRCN
Compound,IC50 [2] [nM],IC50 (A2780) [nM],solubility [6] [µM],IC50 [7] [nM],IC50 [11] [nM],IC50 [13] [nM],other results
Cn1nc(C(N)=O)c2c1-c1nc(Nc3cc(N4CCN(C(=O)OC(C)(C)C)CC4)ccc3OC(F)(F)F)ncc1CC2,1130,1290,,768,,,
COCCn1nc(C(N)=O)c2c1-c1nc(Nc3cc(N4CCN(C)CC4)ccc3OC(F)(F)F)ncc1CC2,> 10000,75,136,> 10000,> 10000,15,
CN1CCCC1CCNc1ccc(OC(F)(F)F)c(Nc2ncc3c(n2)-c2c(c(C(N)=O)nn2C)CC3)c1 (stereo not drawn),969,2560,157,429,,,
CN1CCN(c2ccc(OC(F)(F)F)c(Nc3ncc4c(n3)-c3[nH]nc(C(N)=O)c3CC4)c2)CC1,> 10000,93,12,> 10000,> 10000,4,
CN1CCN(c2ccc(OC(F)(F)F)c(Nc3ncc4c(n3)-c3c(c(C(N)=O)nn3CCF)CC4)c2)CC1,> 10000,14,18,> 10000,> 10000,4,solubility [1]: 2100 µg/mL; clearance [14]: 40.3 mL/min/kg; Vd [15]: 1.53 L/kg; bioavailability [16]: 2%; IC50 [3]: 216 nM; Papp [4]: 50 ×10⁻⁶ cm/s; IC50 [5]: > 10000 nM; half-life [17]: 44.4 min; Cmax [18]: 260 nM; IC50 [8]: 134 nM; AUC(0-inf) [19]: 10.2 µM·h; AUC(0-inf) [20]: 0.192 µM·h; IC50 [9]: > 10000 nM; CLint scaled [10]: 56.1 mL/min/kg; IC50 [12]: > 10000 nM
CN1CCN(c2ccc(OC(F)(F)F)c(Nc3ncc4c(n3)-c3c(c(C(N)=O)nn3C(c3ccccc3)(c3ccccc3)c3ccccc3)CC4)c2)CC1,> 10000,2100,< 1,,,> 10000,
CN1CCN(c2ccc(OC(F)(F)F)c(Nc3ncc4c(n3)-c3c(c(C(N)=O)nn3CCCl)CC4)c2)CC1,2010,31,9,> 10000,> 10000,,
Cn1nc(C(N)=O)c2c1-c1nc(Nc3cc(N4CCC(N5CCCC5)CC4)ccc3OC(F)(F)F)ncc1CC2,> 10000,583,133,> 10000,> 10000,33,
CCn1nc(C(N)=O)c2c1-c1nc(Nc3cc(N4CCN(C)CC4)ccc3OC(F)(F)F)ncc1CC2,> 10000,11,21,> 10000,> 10000,6,
CN1C(C)(C)CC(Nc2ccc(OC(F)(F)F)c(Nc3ncc4c(n3)-c3c(c(C(N)=O)nn3C)CC4)c2)CC1(C)C,3020,1750,147,> 10000,> 10000,964,
Cn1nc(C(N)=O)c2c1-c1nc(Nc3cc(N4CCN(C(=O)N5CCNCC5)CC4)ccc3OC(F)(F)F)ncc1CC2,622,538,85,190,,,
C=Cn1nc(C(N)=O)c2c1-c1nc(Nc3cc(N4CCN(C)CC4)ccc3OC(F)(F)F)ncc1CC2,> 10000,8,8,335,182,,solubility [1]: > 3200 µg/mL; clearance [14]: 57.3 mL/min/kg; Vd [15]: 2.58 L/kg; bioavailability [16]: 29%; IC50 [3]: 226 nM; Papp [4]: 19.6 ×10⁻⁶ cm/s; IC50 [5]: 2380 nM; half-life [21]: 155 min; half-life [17]: 53.4 min; Cmax [18]: 610 nM; IC50 [8]: 69 nM; AUC(0-inf) [19]: 5.37 µM·h; AUC(0-inf) [20]: 2.15 µM·h; IC50 [9]: 336 nM; CLint scaled [10]: 28.8 mL/min/kg; IC50 [12]: 1460 nM

# Now from value to compound, other results behind:
IC50 [2] [nM],IC50 (A2780) [nM],solubility [6] [µM],IC50 [7] [nM],IC50 [11] [nM],IC50 [13] [nM],Compound,other results
> 10000,30,114,> 10000,1430,,Cn1nc(C(N)=O)c2c1-c1nc(Nc3cc(N4CCNCC4)ccc3OC(F)(F)F)ncc1CC2,solubility [1]: 1100 µg/mL; IC50 [3]: 194 nM; Papp [4]: 7.22 ×10⁻⁶ cm/s; IC50 [5]: > 10000 nM; IC50 [8]: 59 nM; IC50 [9]: 595 nM; CLint scaled [10]: 6.9 mL/min/kg; IC50 [12]: > 10000 nM
> 10000,941,95,> 10000,> 10000,25,CN1CCCN(c2ccc(OC(F)(F)F)c(Nc3ncc4c(n3)-c3c(c(C(N)=O)nn3C)CC4)c2)CC1,
414,2220,171,762,,,Cn1nc(C(N)=O)c2c1-c1nc(Nc3cc(NC4CCNC4)ccc3OC(F)(F)F)ncc1CC2 (stereo not drawn),
1020,1090,> 225,3420,,,CN1CCC(Nc2ccc(OC(F)(F)F)c(Nc3ncc4c(n3)-c3c(c(C(N)=O)nn3C)CC4)c2)CC1,
> 10000,34,33,3390,,,CCN1CCN(c2ccc(OC(F)(F)F)c(Nc3ncc4c(n3)-c3c(c(C(N)=O)nn3C)CC4)c2)CC1,
> 10000,> 10000,48,> 10000,> 10000,2680,Cn1nc(C(N)=O)c2c1-c1nc(Nc3cc([N+]4([O-])CC[N+](C)([O-])CC4)ccc3OC(F)(F)F)ncc1CC2 (stereo not drawn),
1180,1080,31,1280,,,Cn1nc(C(N)=O)c2c1-c1nc(Nc3cc(N)ccc3OC(F)(F)F)ncc1CC2,
1760,6410,< 1,206,32,117,Cn1nc(C(N)=O)c2c1-c1nc(Nc3ccccc3OC(F)(F)F)ncc1CC2,
> 10000,782,> 225,> 10000,,,Cn1nc(C(N)=O)c2c1-c1nc(Nc3cc(N4CC[N+](C)([O-])CC4)ccc3OC(F)(F)F)ncc1CC2,
